Data reported in ChEMBL document CHEMBL1201862, “PubChem BioAssay data set” (2004).
Activity calls are given as the source filed them.

tested on: not listed separately; assay: inhibitors of intracellular T. cruzi replication, confirmation, NIH3T3 host cells, beta-gal luminescence (AID 2044); format: functional, cell-based; settings: not given;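 also: intracellular parasites grown in NIH/3T3 mouse fibroblasts as host cells; luminescent beta-galactosidase reporter signal from transgenic T. cruzi replicating inside host cells; inhibitors lower the luminescence signal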

SMILES	EC50
COC(=O)C1=CN(C2CCCCC2)C=C(C(=O)OC)C1c1ccc2c(c1)OCO2	1.56 µM (active)
Cc1cc[n+](C(C)C(=O)c2ccc(-c3ccccc3)cc2)cc1 (stereo unspecified)	3.33 µM (active)

target: Cytochrome P450 2C9 (Homo sapiens, UniProt P11712); settings: not given
Sequence (P11712 whole entry): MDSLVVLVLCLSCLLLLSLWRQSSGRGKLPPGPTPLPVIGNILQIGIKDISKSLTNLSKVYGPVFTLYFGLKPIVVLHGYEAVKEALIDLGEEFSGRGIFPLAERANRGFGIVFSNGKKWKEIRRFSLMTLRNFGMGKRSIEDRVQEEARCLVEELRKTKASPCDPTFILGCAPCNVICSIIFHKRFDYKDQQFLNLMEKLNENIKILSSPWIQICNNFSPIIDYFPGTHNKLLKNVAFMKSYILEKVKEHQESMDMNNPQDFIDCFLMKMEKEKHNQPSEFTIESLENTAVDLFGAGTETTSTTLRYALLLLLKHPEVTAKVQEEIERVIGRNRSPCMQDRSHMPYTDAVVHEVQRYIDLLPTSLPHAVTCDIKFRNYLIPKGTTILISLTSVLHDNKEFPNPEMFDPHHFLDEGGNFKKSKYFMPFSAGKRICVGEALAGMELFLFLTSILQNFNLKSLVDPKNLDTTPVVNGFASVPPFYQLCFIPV

SMILES	AC50
COC(=O)[C@@]1(Cc2ccccc2)[C@H]2c3cc(C(=O)N(C)C)n(Cc4ccc(S(C)(=O)=O)cc4)c3C[C@H]2CN1C(=O)c1ccccc1	25.1 µM (inconclusive)
O=C(CCN1C(=O)C2C3C=CC(C3)C2C1=O)N1CCN(c2cccc(Cl)c2)CC1 (stereo unspecified)	11.2 µM (inconclusive)
N#Cc1cccc(NC(=O)N2CCCC3(CCN(C(=O)Oc4ccccc4)CC3)C2)c1	25.1 µM (inconclusive)
COc1ccc2[nH]c3c(NCCCN4CCCC4=O)ncnc3c2c1	3.98 µM (inconclusive)
COc1cc(-n2ccnc2SC)c(Cl)cc1Cl	39.8 µM (inconclusive)

tested on: not listed separately; assay: Luminescence Cell-Based Dose Response HTS to Identify Activators of Luciferase Translation or Activity in H4 […] Cells. [Related pubchem assays: 1829 (Project Summary), 1814 (Primary HTS)]; format: functional; settings: not given

SMILES	EC50
NC1=C(c2nc3ccccc3[nH]2)C(=O)CN1c1ccccc1	79.8 µM (active)
Cc1nn(-c2ccccc2)c2sc(C(=O)NC3CC3)cc12	48.3 µM (active)
O=C(Cn1cc(C(F)(F)F)cc(Cl)c1=O)NCc1ccccc1	31.6 µM (active)
O=C(Nc1cccnc1)c1ccc(CN2CCc3ccccc3C2)cc1	28.6 µM (active)
CCN(CC)CCN1C(=O)c2oc3ccccc3c(=O)c2C1c1ccc(F)cc1 (stereo unspecified)	14.1 µM (active)
O=c1c(-c2ccc(Cl)cc2)cnc2n1CCS2	11.3 µM (active)
Cc1sc2ncnc(Sc3nc4ccccc4s3)c2c1C	> 120 µM (not active)
COC(=O)c1ccc(CSc2nncn2C)cc1	54.3 µM (active)
Cc1nnc(SCC(=O)NC(=O)Nc2ccc3c(c2)OCCO3)n1N	32.8 µM (active)

tested on: not listed separately; assay: cytotoxicity toward NIH3T3 fibroblasts, dose response, counter-screen, cell-based, ATP luminescence, mouse fibroblasts (AID 2010); format: functional; settings: not given;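 also: cells exposed to compound for about 90 hours before reading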

SMILES	EC50
COC(=O)C1=CN(C2CCCCC2)C=C(C(=O)OC)C1c1ccc2c(c1)OCO2	> 60 µM (inconclusive)
Cc1cc[n+](C(C)C(=O)c2ccc(-c3ccccc3)cc2)cc1 (stereo unspecified)	> 60 µM (not active)

tested on: not listed separately; assay: inhibitors of firefly luciferase expression or activity, dose response, H4 neuroglioma cells, luminescence (AID 1990); format: functional, cell-based; settings: not given

SMILES	EC50
COC(=O)C1=CN(C2CCCCC2)C=C(C(=O)OC)C1c1ccc2c(c1)OCO2	15.8 µM (active)
Clc1ccccc1Cn1nnc2c(N3CCOCC3)nc(C3CC3)nc21	23.8 µM (active)
COc1ccc(-c2nc3c4c(ncn3n2)-c2ccccc2CC42CCCC2)cc1	23 µM (active)
CCOc1ccc(S(=O)(=O)N2CCCCC2)c2ccccc12	20.9 µM (active)
Brc1ccccc1C1=Nn2c(nnc2-c2ccccc2)SC1	15.5 µM (active)
CCOC(=O)CN1C(=O)C(Sc2n[nH]c(-c3ccc(C)cc3)n2)CCc2ccccc21 (stereo unspecified)	19.1 µM (active)

target: Cytochrome P450 2C19 (Homo sapiens, UniProt P33261); assay: Cytochrome panel assay with activity outcomes. Panel member name: p450-cyp2c19 Compounds with AC50 equal or less than 10 uM are considered active; format: functional; settings: not given
Sequence (P33261 whole entry): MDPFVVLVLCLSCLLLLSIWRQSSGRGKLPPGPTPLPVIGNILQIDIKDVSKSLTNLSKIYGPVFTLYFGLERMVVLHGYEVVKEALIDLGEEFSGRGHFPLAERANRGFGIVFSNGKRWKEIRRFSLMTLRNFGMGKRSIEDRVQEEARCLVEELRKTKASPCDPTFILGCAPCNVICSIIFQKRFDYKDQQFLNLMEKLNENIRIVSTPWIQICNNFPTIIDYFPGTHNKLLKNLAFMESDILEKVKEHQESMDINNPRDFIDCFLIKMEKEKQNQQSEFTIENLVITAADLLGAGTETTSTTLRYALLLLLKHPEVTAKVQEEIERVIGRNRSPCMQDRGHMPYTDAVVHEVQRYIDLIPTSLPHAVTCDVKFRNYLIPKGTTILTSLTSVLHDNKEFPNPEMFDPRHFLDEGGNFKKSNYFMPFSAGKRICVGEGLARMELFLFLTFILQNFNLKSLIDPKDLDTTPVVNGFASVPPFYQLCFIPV

SMILES	AC50
COc1ccc(NC(=O)C(c2ccc(OC)cc2)N(C)C(=O)CNC(C)=O)cc1 (stereo unspecified)	inconclusive

same assay, conditions: read-out: AC50

SMILES	AC50
COC(=O)[C@@]1(Cc2ccccc2)[C@H]2c3cc(C(=O)N(C)C)n(Cc4ccc(S(C)(=O)=O)cc4)c3C[C@H]2CN1C(=O)c1ccccc1	39.8 µM (inconclusive)
O=C(CCN1C(=O)C2C3C=CC(C3)C2C1=O)N1CCN(c2cccc(Cl)c2)CC1 (stereo unspecified)	25.1 µM (inconclusive)
N#Cc1cccc(NC(=O)N2CCCC3(CCN(C(=O)Oc4ccccc4)CC3)C2)c1	25.1 µM (inconclusive)
COc1ccc2[nH]c3c(NCCCN4CCCC4=O)ncnc3c2c1	39.8 µM (inconclusive)
COc1cc(-n2ccnc2SC)c(Cl)cc1Cl	7.08 µM (inconclusive)

tested on: INS1; assay: beta cell apoptosis inhibitors, cytokine rescue, dose response, luminescence, retest (AID 449756); format: functional, cell-based; settings: Rattus norvegicus;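 also: cell death triggered by IL-1 beta plus TNF-alpha plus IFN-gamma mixture; protective hits raise ATP signal compared with cytokine alone wells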

SMILES	AC50
Cc1cc[n+](C(C)C(=O)c2ccc(-c3ccccc3)cc2)cc1 (stereo unspecified)	4.05 µM (active)

target: Cytochrome P450 3A4 (Homo sapiens, UniProt P08684); settings: not given;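 also: CYP3A4 tested as one member of a cytochrome P450 panel screen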
Sequence (P08684 whole entry): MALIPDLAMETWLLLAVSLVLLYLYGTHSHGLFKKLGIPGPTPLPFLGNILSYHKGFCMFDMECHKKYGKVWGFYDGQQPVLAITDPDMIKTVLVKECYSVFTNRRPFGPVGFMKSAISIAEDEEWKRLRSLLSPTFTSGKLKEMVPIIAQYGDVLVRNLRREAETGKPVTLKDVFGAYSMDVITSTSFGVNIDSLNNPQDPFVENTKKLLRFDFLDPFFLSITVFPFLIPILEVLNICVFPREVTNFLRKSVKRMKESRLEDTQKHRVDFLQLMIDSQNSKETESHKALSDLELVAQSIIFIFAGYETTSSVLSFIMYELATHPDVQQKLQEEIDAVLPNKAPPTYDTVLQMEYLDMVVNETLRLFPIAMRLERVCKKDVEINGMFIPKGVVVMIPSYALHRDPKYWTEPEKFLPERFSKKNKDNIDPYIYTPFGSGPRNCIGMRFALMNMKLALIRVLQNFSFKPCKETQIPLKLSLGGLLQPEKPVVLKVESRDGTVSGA

SMILES	AC50
N#Cc1cccc(NC(=O)N2CCCC3(CCN(C(=O)Oc4ccccc4)CC3)C2)c1	12.6 µM (inconclusive)
COc1ccc2[nH]c3c(NCCCN4CCCC4=O)ncnc3c2c1	17.8 µM (inconclusive)

tested on: not listed separately; assay: Luminescence Cell-Based Dose Response HTS to Identify Inhibitors of 5'UTR Stem-Loop Driven Prion Protein mRNA Translation in H4 Neuroglioblastoma Cells. [Related pubchem assays: 1827 (Project Summary), 1813 (Primary HTS)]; format: functional; settings: not given

SMILES	EC50
COC(=O)C1=CN(C2CCCCC2)C=C(C(=O)OC)C1c1ccc2c(c1)OCO2	57.5 µM (active)
Clc1ccccc1Cn1nnc2c(N3CCOCC3)nc(C3CC3)nc21	> 120 µM (not active)
COc1ccc(-c2nc3c4c(ncn3n2)-c2ccccc2CC42CCCC2)cc1	> 120 µM (not active)
CCOc1ccc(S(=O)(=O)N2CCCCC2)c2ccccc12	> 120 µM (not active)
Brc1ccccc1C1=Nn2c(nnc2-c2ccccc2)SC1	> 120 µM (not active)
CCOC(=O)CN1C(=O)C(Sc2n[nH]c(-c3ccc(C)cc3)n2)CCc2ccccc21 (stereo unspecified)	> 120 µM (not active)

tested on: not listed separately; assay: Luminescence Cell-Based Dose Confirmation HTS to Identify Activators of 5'UTR Stem-Loop Driven Alpha-Synuclein mRNA Translation in H4 Neuroglioblastoma Cells. [Related pubchem assays: 1829 (Project Summary), 1814 (Primary HTS)]; format: functional; settings: not given

SMILES	EC50
NC1=C(c2nc3ccccc3[nH]2)C(=O)CN1c1ccccc1	> 120 µM (not active)
Cc1nn(-c2ccccc2)c2sc(C(=O)NC3CC3)cc12	> 120 µM (not active)
O=C(Cn1cc(C(F)(F)F)cc(Cl)c1=O)NCc1ccccc1	84.7 µM (active)
O=C(Nc1cccnc1)c1ccc(CN2CCc3ccccc3C2)cc1	50.3 µM (active)
CCN(CC)CCN1C(=O)c2oc3ccccc3c(=O)c2C1c1ccc(F)cc1 (stereo unspecified)	> 120 µM (not active)
O=c1c(-c2ccc(Cl)cc2)cnc2n1CCS2	13 µM (active)
Cc1sc2ncnc(Sc3nc4ccccc4s3)c2c1C	> 120 µM (not active)
COC(=O)c1ccc(CSc2nncn2C)cc1	9.45 µM (active)
Cc1nnc(SCC(=O)NC(=O)Nc2ccc3c(c2)OCCO3)n1N	11.9 µM (active)

target: T1, Cytochrome P450 1A2 (Homo sapiens, UniProt P05177); settings: not given;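 also: PubChem cytochrome P450 panel assay, CYP1A2 panel member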
T1 sequence (P05177 whole entry): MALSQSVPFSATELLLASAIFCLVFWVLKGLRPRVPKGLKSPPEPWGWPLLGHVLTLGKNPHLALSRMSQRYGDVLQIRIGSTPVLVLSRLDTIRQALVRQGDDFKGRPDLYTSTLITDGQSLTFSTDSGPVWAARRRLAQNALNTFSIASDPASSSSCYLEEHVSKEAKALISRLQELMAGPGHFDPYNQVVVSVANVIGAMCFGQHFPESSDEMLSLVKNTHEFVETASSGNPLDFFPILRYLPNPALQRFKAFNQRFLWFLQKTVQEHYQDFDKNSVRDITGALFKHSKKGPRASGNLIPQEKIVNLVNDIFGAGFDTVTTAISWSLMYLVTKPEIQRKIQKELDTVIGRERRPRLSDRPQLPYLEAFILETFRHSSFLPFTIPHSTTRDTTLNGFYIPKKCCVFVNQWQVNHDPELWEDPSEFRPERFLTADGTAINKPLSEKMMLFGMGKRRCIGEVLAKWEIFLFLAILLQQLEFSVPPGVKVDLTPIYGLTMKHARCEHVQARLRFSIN

SMILES	AC50
COC(=O)[C@@]1(Cc2ccccc2)[C@H]2c3cc(C(=O)N(C)C)n(Cc4ccc(S(C)(=O)=O)cc4)c3C[C@H]2CN1C(=O)c1ccccc1	31.6 µM (inconclusive)
N#Cc1cccc(NC(=O)N2CCCC3(CCN(C(=O)Oc4ccccc4)CC3)C2)c1	15.8 µM (inconclusive)
COc1cc(-n2ccnc2SC)c(Cl)cc1Cl	15.8 µM (inconclusive)

tested on: not listed separately; assay: inhibitors of SNCA 5'UTR-driven reporter translation, confirmation, H4 neuroglioma cells, luminescence (AID 1988); format: functional, cell-based; settings: not given

SMILES	EC50
COC(=O)C1=CN(C2CCCCC2)C=C(C(=O)OC)C1c1ccc2c(c1)OCO2	> 120 µM (not active)
Clc1ccccc1Cn1nnc2c(N3CCOCC3)nc(C3CC3)nc21	27 µM (active)
COc1ccc(-c2nc3c4c(ncn3n2)-c2ccccc2CC42CCCC2)cc1	14.7 µM (active)
CCOc1ccc(S(=O)(=O)N2CCCCC2)c2ccccc12	> 120 µM (not active)
Brc1ccccc1C1=Nn2c(nnc2-c2ccccc2)SC1	38.4 µM (active)
CCOC(=O)CN1C(=O)C(Sc2n[nH]c(-c3ccc(C)cc3)n2)CCc2ccccc21 (stereo unspecified)	> 120 µM (not active)

tested on: H4; assay: Luminescence Cell-Based Dose Response HTS to Identify Activators of 5'UTR Stem-Loop Driven Prion Protein mRNA Translation in H4 Neuroglioblastoma Cells. [Related pubchem assays: 1829 (Project Summary), 1814 (Primary HTS)]; format: functional; settings: Homo sapiens

SMILES	EC50
NC1=C(c2nc3ccccc3[nH]2)C(=O)CN1c1ccccc1	6.44 µM (active)
Cc1nn(-c2ccccc2)c2sc(C(=O)NC3CC3)cc12	27.9 µM (active)
O=C(Cn1cc(C(F)(F)F)cc(Cl)c1=O)NCc1ccccc1	18.5 µM (active)
O=C(Nc1cccnc1)c1ccc(CN2CCc3ccccc3C2)cc1	> 120 µM (not active)
CCN(CC)CCN1C(=O)c2oc3ccccc3c(=O)c2C1c1ccc(F)cc1 (stereo unspecified)	22.4 µM (active)
O=c1c(-c2ccc(Cl)cc2)cnc2n1CCS2	13.7 µM (active)
Cc1sc2ncnc(Sc3nc4ccccc4s3)c2c1C	> 120 µM (not active)
COC(=O)c1ccc(CSc2nncn2C)cc1	11.3 µM (active)
Cc1nnc(SCC(=O)NC(=O)Nc2ccc3c(c2)OCCO3)n1N	> 120 µM (not active)
